Results reported in patent US12371430B2, “5-morpholin-4-yl-pyrazolo[4,3-b]pyridine derivatives” (Merck Patent GmbH, priority 2018, dated 2025).

What follows are compounds tested on phosphorylation of Chk1 (Ser 345) in HT29 colon adenocarcinoma cells (assay: pCHK1 cellular assay). Details: Homo sapiens, HT-29, hydroxyurea 3 mM, 4 h.
Assay type: cell-based
From the text: Chk1 kinase acts downstream of ATR and has a key role in DNA damage checkpoint control. Activation of Chk1 involves phosphorylation of Ser317 and Ser345 (regarded as the preferential target for phosphorylation/activation by ATR) and occurs in response to blocked DNA replication and certain forms of genotoxic stress. Phosphorylation at Ser 345 serves to localize Chk1 to the nucleus following checkpoint activation.
This assay measures a decrease in phosphorylation of Chk1 (Ser 345) in HT29 colon adenocarcinoma cells following treatment with compound and hydroxyurea (which promotes fork stalling because of dNTP depletion) and using an immunocytochemical procedure and high content imaging.
For the assay HT29 cells are plated in culture medium (DMEM high Glucose (no phenol red), 2 mM Glutamax, 1 mM Pyruvate, 10% FCS into Greiner 384 well plates, black, μclear #781090 (2500 cells/well/30 μl) and incubated for at least 20 hours at 37° C., 10% CO2 and 90% rH. Diluted test compounds (1 nM-30 μM final) and hydroxyurea (3 mM final) are added simultaneously and cells are incubated for 4 h at 37° C. After fixation/prmeabilisation with 100% MeOH (−20° C. cold) and permeabilisation with 0.2% Triton X-100 a complete immunocytochemical procedure is performed using a specific anti-pChk1 antibody (Cell Signaling, #2348BF) and fluorescently labelled secondary antibody (Alexa Fluor® 488 goat anti-rabbit F(ab′)2 fragment, Invitrogen A11070) and parallel nuclear staining for cell counting.
The nuclear localised pChk1 signal is detected on an ImageXpress Ultra confocal high content reader and reported as % positive cells (nuclei).

| IC50 [nM] | Compound |
| --- | --- |
| 10 to 100 | C[C@@H]1COCCN1c1cc([C@H]2CCOC2)c2c(n1)c(-c1ccn[nH]1)nn2C [Compound 72, 1-Methyl-5-((R)-3-methyl-morpholin-4-yl)-3-(2H-pyrazol-3-yl)-7-(R)-tetrahydro-furan-3-yl-1H-pyrazolo[4,3-b]pyridine] |
| 10 to 100 | C[C@@H]1COCCN1c1cc(C2=CCSCC2)c2c(n1)c(-c1ccn[nH]1)nn2C [Compound 79, (3R)-4-[7-(3,6-Dihydro-2H-thiopyran-4-yl)-1-methyl-3-(1H-pyrazol-5-yl)-1H-pyrazolo[4,3-b]pyridin-5-yl]-3-methylmorpholine] |
| 100 to 1000 | C[C@@H]1COCCN1c1cc(C2=CC[S+]([O-])CC2)c2c(n1)c(-c1ccn[nH]1)nn2C (stereo partly drawn) [Compound 80, 4-[1-Methyl-5-[(3R)-3-methylmorpholin-4-yl]-3-(1H-pyrazol-5-yl)-1H-pyrazolo[4,3-b]pyridin-7-yl]-3,6-dihydro-2H-1lambda4-thiopyran-1-one] |
| 100 to 1000 | C[C@@H]1COCCN1c1cc(C2CCS(=O)(=O)CC2)c2c(n1)c(-c1ccn[nH]1)nn2C [Compound 82] |
| 1000 to 10000 | C[C@@H]1COCCN1c1ccc2c(n1)c(-c1cc[nH]n1)nn2Cc1cccnc1 [Compound 83, (3R)-3-Methyl-4-[3-(1H-pyrazol-3-yl)-1-[(pyridin-3-yl)methyl]-1H-pyrazolo[4,3-b]pyridin-5-yl]morpholine] |
| 10 to 100 | Cc1c(-c2cc(N3CCOC[C@H]3C)nc3c(-c4cc[nH]n4)nn(C)c23)nnn1C [Compound 84, (3R)-4-[7-(1,5-Dimethyl-1H-1,2,3-triazol-4-yl)-1-methyl-3-(1H-pyrazol-3-yl)-1H-pyrazolo[4,3-b]pyridin-5-yl]-3-methylmorpholine] |
| 1000 to 10000 | C[C@@H]1COCCN1c1ccc2c(n1)c(-c1cc[nH]n1)nn2Cc1ccccn1 [Compound 88, (3R)-3-Methyl-4-[3-(1H-pyrazol-3-yl)-1-[(pyridin-2-yl)methyl]-1H-pyrazolo[4,3-b]pyridin-5-yl]morpholine] |
